Measured values published in patent US9302999B2, “Substituted triazoles as herbicides” (E. I. DU PONT DE NEMOURS AND COMPANY, priority 2012, dated 2016).

How the values were obtained:
Type in all cases: in vivo
[1] = system: barnyardgrass (Echinochloa crus-galli); experiment: Test C flooded paddy test: barnyardgrass; conditions: scale 0 to 100 (0 no effect, 100 complete control)
Method in brief: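 Greenhouse plants treated at the 2-leaf stage by dosing the flood water (3 cm depth, maintained) were compared with controls after 13 to 15 days and rated 0 to 100, where 100 means complete control; a dash marks no test result.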

[2] = system: canarygrass (Phalaris minor); experiment: Test C postemergence: canarygrass
Excerpt: (§1) At the same time, plants selected from these crop and weed species and also barley (winter barley, Hordeum vulgare), canarygrass (Phalaris minor), chickweed (common chickweed, Stellaria media) windgrass (Apera spica-venti) and deadnettle (henbit deadnettle, Lamium amplexicaule) were planted in pots containing Redi-Earth® planting medium (Scotts Company, 14111 Scottslawn Road, Marysville, Ohio 43041) comprising spaghnum peat moss, vermiculite, wetting agent and starter nutrients and treated with postemergence applications of test chemicals formulated in the same manner. Plants ranged in height from 2 to 18 cm (1- to 4-leaf stage) for postemergence treatments.
(§2) Treated plants and controls were maintained in a greenhouse for 13 to 15 days, after which time all species were compared to controls and visually evaluated. Plant response ratings, summarized in Table C, are based on a scale of 0 to 100 where 0 is no effect and 100 is complete control. A dash (-) response means no test result.

[3] = system: lambsquarters (Chenopodium album); experiment: Test C pre-/postemergence: lambsquarters
Excerpt: (§3) Seeds of plant species selected from blackgrass (Alopecurus myosuroides), bromegrass, downy (downy bromegrass, Bromus tectorum), foxtail, green (green foxtail, Setaria viridis), ryegrass, Italian (Italian ryegrass, Lolium multiflorum), winter wheat (Triticum aestivum), wild oat (Avena fatua), galium (catchweed bedstraw, Galium aparine), bermudagrass (Cynodon dactylon), surinam grass (Brachiaria decumbens), cocklebur (common cocklebur, Xanthium strumarium), corn (Zea mays), large crabgrass (Digitaria sanguinalis), woolly cupgrass (Eriochloa villosa), foxtail, giant (giant foxtail, Setaria faberii), goosegrass (Eleusine indica), johnsongrass (Sorghum halepense), kochia (Kochia scoparia), lambsquarters (Chenopodium album), morningglory (Ipomoea coccinea), nightshade (eastern black nightshade, Solanum ptycanthum), nutsedge, yellow (yellow nutsedge, Cyperus esculentus), pigweed (Amaranthus retroflexus), ragweed (common ragweed, Ambrosia elation), soybean (Glycine max), common (oilseed) sunflower (Helianthus annuus), Russian thistle (Salsola kali) and velvetleaf (Abutilon theophrasti) were planted into a blend of loam soil and sand and treated preemergence with test chemicals formulated in a non-phytotoxic solvent mixture which included a surfactant.
as §1, §2

[4] = system: surinam grass (Brachiaria decumbens); experiment: Test C pre-/postemergence: surinam grass
Excerpt: as §3, §1, §2

wild oat (Avena fatua) = experiment: Test C pre-/postemergence: wild oat
Excerpt: as §3, §1, §2

[5] = system: wheat, spring (spring wheat, Triticum aestivum); experiment: Test D pre-/postemergence: wheat, spring; conditions: Postemergence
Excerpt: (§4) Seeds of plant species selected from bluegrass (annual bluegrass, Poa annua), blackgrass (Alopecurus myosuroides), canarygrass (Phalaris minor), chickweed (common chickweed, Stellaria media), galium (catchweed bedstraw, Galium aparine), bromegrass, downy (downy bromegrass, Bromus tectorum), field poppy (Papaver rhoeas), field violet (Viola arvensis), foxtail, green (green foxtail, Setaria viridis), deadnettle (henbit deadnettle, Lamium amplexicaule), ryegrass, Italian (Italian ryegrass, Lolium multiflorum), kochia (Kochia scoparia), lambsquarters (Chenopodium album), oilseed rape (Brassica napus), pigweed (Amaranthus retroflexus), Russian thistle (Salsola iberica), chamomile (scentless chamomile, Matricaria inodora), speedwell (bird's-eye speedwell, Veronica persica), barley, spring (spring barley, Hordeum vulgare), wheat, spring (spring wheat, Triticum aestivum), buckwheat, wild (wild buckwheat, Polygonum convolvulus), mustard, wild (wild mustard, Sinapis arvensis), oat, wild (wild oat, Avena fatua), radish, wild (wild radish, Raphanus raphanistrum), windgrass (Apera spica-venti), barley, winter (winter barley, Hordeum vulgare), and wheat, winter (winter wheat, Triticum aestivum) were planted into a silt loam soil and treated preemergence with test chemicals formulated in a non-phytotoxic solvent mixture which included a surfactant. At the same time, these same crop and weed species were planted in pots containing the planting medium comprising spaghnum peat moss, vermiculite, wetting agent and starter nutrients and treated with postemergence applications of the test chemicals formulated in the same manner. Plants ranged in height from 2 to 18 cm (1- to 4-leaf stage).
as §2, with “controlled growth environment” for “greenhouse”, “14” for “13”, “21 days” for “15 days,”, “D,” for “C,”

[6] = system: chamomile (scentless chamomile, Matricaria inodora); experiment: Test D pre-/postemergence: chamomile; conditions: Postemergence
Method in brief: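 Visual ratings from 0 (no effect) to 100 (complete control) were made 14–21 days after treatment, relative to controls. Applications were preemergence to seeds in silt loam, or postemergence to 2–18 cm (1–4 leaf) plants in peat-based medium. Compounds were formulated in a surfactant-containing non-phytotoxic solvent.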

[7] = system: windgrass (Apera spica-venti); experiment: Test D pre-/postemergence: windgrass; conditions: Postemergence; for Plant response rating, Windgrass: scale 0 to 100
Excerpt: as §4
as §2, with “controlled growth environment” for “greenhouse”, “14” for “13”, “21 days” for “15 days,”, “D,” for “C,”

[8] = system: oat, wild (wild oat, Avena fatua); experiment: Test D pre-/postemergence: oat, wild; conditions: Postemergence
Excerpt: as §4
as §2, with “controlled growth environment” for “greenhouse”, “14” for “13”, “21 days” for “15 days,”, “D,” for “C,”

[9] = 31 g ai/ha, scale 0 to 100 (0 no effect, 100 complete control)
[10] = 62 g ai/ha, scale 0 to 100 (0 no effect, 100 complete control)
[11] = 125 g ai/ha, scale 0 to 100, 0 no effect, 100 complete control
[12] = Postemergence, 31 g ai/ha, scale 0 to 100 (0 no effect, 100 complete control)
[13] = Preemergence, 31 g ai/ha, scale of 0 to 100, 0 is no effect, 100 is complete control
[14] = Preemergence, 62 g ai/ha, scale of 0 to 100, 0 is no effect, 100 is complete control
[15] = Preemergence, 125 g ai/ha, scale 0 to 100, 0 no effect, 100 complete control
[16] = Preemergence, 250 g ai/ha, scale 0 to 100, 0 no effect, 100 complete control
[17] = Postemergence, 62 g ai/ha, scale 0 to 100 (0 no effect, 100 complete control)
[18] = Postemergence, 125 g ai/ha, scale 0 to 100, 0 no effect, 100 complete control
[19] = Postemergence, 250 g ai/ha, scale 0 to 100
[20] = Postemergence, 16 g ai/ha, scale 0 to 100, 0 no effect, 100 complete control
[21] = 250 g ai/ha, scale 0 to 100 (0 no effect, 100 complete control)

Structure (SMILES): Cc1nn(-c2ccc(C(F)(F)F)cc2)nc1Cc1ccnc(C(F)(F)F)c1 [Compound 47, 4-[[5-methyl-2-[4-(trifluoromethyl)phenyl]-2H-1,2,3-triazol-4-yl]methyl]-2-(trifluoromethyl)pyridine]
- pest or weed control at 62 g/ha ([1]; Echinochloa crus-galli, Flood (flooded paddy test), 62 g ai/ha, visual rating after 13 to 15 days, read-out: Plant response rating, Barnyardgrass): 50%
- pest or weed control at 125 g/ha ([1]; Echinochloa crus-galli, Flood (flooded paddy test), 125 g ai/ha, visual rating after 13 to 15 days, read-out: Plant response rating, Barnyardgrass): 80%
- pest or weed control at 250 g/ha ([1]; Echinochloa crus-galli, Flood (flooded paddy test), 250 g ai/ha, visual rating after 13 to 15 days, read-out: Plant response rating, Barnyardgrass): 80%
- pest or weed control at 31 g/ha ([1]; Echinochloa crus-galli, Flood, 31 g ai/ha, read-out: Plant response rating, Barnyardgrass): 40%
- Plant response rating, Canarygrass [2, 9]: 60
- Plant response rating, Canarygrass [2, 10]: 75
- Plant response rating, Canarygrass [2, 11]: 85
- Plant response rating, Canarygrass ([2]; 250 g ai/ha, scale 0 to 100): 90
- Plant response rating, Lambsquarters [3, 12]: 100
- Plant response rating, Lambsquarters [3, 13]: 100
- Plant response rating, Lambsquarters [3, 14]: 100
- Plant response rating, Lambsquarters [3, 15]: 100
- Plant response rating, Lambsquarters [3, 16]: 100
- Plant response rating, Surinam Grass [4, 12]: 5
- Plant response rating, Surinam Grass [4, 17]: 10
- Plant response rating, Surinam Grass [4, 18]: 60
- Plant response rating, Surinam Grass [4, 19]: 60
- Plant response rating, Surinam Grass [4, 13]: 5
- Plant response rating, Surinam Grass [4, 14]: 20
- Plant response rating, Surinam Grass [4, 15]: 65
- Plant response rating, Surinam Grass [4, 16]: 65
- Plant response rating, Oat, Wild (wild oat (Avena fatua); [12]): 35
- Plant response rating, Oat, Wild (wild oat (Avena fatua); [18]): 85
- Plant response rating, Oat, Wild (wild oat (Avena fatua); [19]): 90
- Plant response rating, Oat, Wild (wild oat (Avena fatua); [13]): 80
- Plant response rating, Oat, Wild (wild oat (Avena fatua); [14]): 90
- Plant response rating, Oat, Wild (wild oat (Avena fatua); [15]): 90
- Plant response rating, Oat, Wild (wild oat (Avena fatua); [16]): 100

Structure (SMILES): Cc1nn(-c2ccc(C(F)(F)F)cc2)nc1Cc1cccc(C(F)(F)F)c1 [Compound 124]
- Plant response rating, Barnyardgrass ([1]; Flood (flooded paddy test), 125 g ai/ha, visual rating after 13 to 15 days): 50
- Plant response rating, Barnyardgrass ([1]; Flood (flooded paddy test), 250 g ai/ha, visual rating after 13 to 15 days): 50
- Plant response rating, Barnyardgrass ([1]; Flood, 31 g ai/ha): 20
- Plant response rating, Barnyardgrass ([1]; Flood, 62 g ai/ha): 40
- Plant response rating, Canarygrass ([2]; 16 g ai/ha, scale 0 to 100, 0 no effect, 100 complete control): 0
- Plant response rating, Canarygrass [2, 9]: 20
- Plant response rating, Canarygrass [2, 10]: 35
- Plant response rating, Canarygrass [2, 11]: 85
- Plant response rating, Lambsquarters [3, 20]: 85
- Plant response rating, Lambsquarters [3, 12]: 95
- Plant response rating, Lambsquarters [3, 17]: 98
- Plant response rating, Lambsquarters [3, 18]: 98
- Plant response rating, Surinam Grass [4, 20]: 5
- Plant response rating, Surinam Grass [4, 12]: 10
- Plant response rating, Surinam Grass [4, 17]: 15
- Plant response rating, Surinam Grass [4, 18]: 20
- Plant response rating, Oat, Wild (wild oat (Avena fatua); [20]): 20
- Plant response rating, Oat, Wild (wild oat (Avena fatua); [12]): 20
- Plant response rating, Oat, Wild (wild oat (Avena fatua); [17]): 25
- Plant response rating, Oat, Wild (wild oat (Avena fatua); [18]): 35

Structure (SMILES): Cc1nn(-c2ccnc(C(F)(F)F)c2)nc1Cc1ccnc(C(F)(F)F)c1 [Compound 137]
- Plant response rating: Wheat, Spring [5, 9]: 5
- Plant response rating: Wheat, Spring [5, 10]: 10
- Plant response rating: Wheat, Spring [5, 11]: 20
- Plant response rating: Wheat, Spring [5, 21]: 25
- Plant response rating, Wheat, Spring ([5]; 16 g ai/ha, scale 0 to 100): 0
- Plant response rating, Canarygrass [2, 9]: 45
- Plant response rating, Canarygrass [2, 10]: 60
- Plant response rating, Canarygrass [2, 11]: 70
- Plant response rating, Canarygrass ([2]; 250 g ai/ha, scale 0 to 100): 75
- Plant response rating, Lambsquarters [3, 12]: 100
- Plant response rating, Lambsquarters [3, 17]: 100
- Plant response rating, Lambsquarters [3, 18]: 100
- Plant response rating, Lambsquarters [3, 19]: 100
- Plant response rating, Surinam Grass [4, 12]: 40
- Plant response rating, Surinam Grass [4, 17]: 45
- Plant response rating, Surinam Grass [4, 18]: 45
- Plant response rating, Surinam Grass [4, 19]: 45
- Plant response rating: Chamomile [6, 9]: 10
- Plant response rating: Chamomile [6, 10]: 15
- Plant response rating: Chamomile [6, 11]: 20
- Plant response rating: Chamomile [6, 21]: 40
- Plant response rating, Chamomile ([6]; 16 g ai/ha, scale 0 to 100): 0
- Plant response rating: Windgrass [7, 10]: 40
- Plant response rating: Windgrass [7, 11]: 50
- Plant response rating: Windgrass [7, 21]: 80
- Plant response rating, Windgrass ([7]; 16 g ai/ha): 10
- Plant response rating, Windgrass ([7]; 31 g ai/ha): 20
- Plant response rating: Oat, Wild [8, 9]: 10
- Plant response rating: Oat, Wild [8, 10]: 20
- Plant response rating: Oat, Wild [8, 11]: 35
- Plant response rating: Oat, Wild [8, 21]: 50
- Plant response rating, Oat, Wild ([8]; 16 g ai/ha, scale 0 to 100): 0
- Plant response rating, Oat, Wild (wild oat (Avena fatua); [12]): 45
- Plant response rating, Oat, Wild (wild oat (Avena fatua); [17]): 50
- Plant response rating, Oat, Wild (wild oat (Avena fatua); [18]): 50
- Plant response rating, Oat, Wild (wild oat (Avena fatua); [19]): 70

Structure (SMILES): Fc1ccc(-n2nc(Cc3ccnc(C(F)(F)F)c3)c(OCC(F)(F)F)n2)cc1 [Compound 142]
- Plant response rating, Canarygrass [2, 9]: 45
- Plant response rating, Canarygrass [2, 10]: 80
- Plant response rating, Canarygrass [2, 11]: 85
- Plant response rating, Canarygrass ([2]; 250 g ai/ha, scale 0 to 100): 100
- Plant response rating, Lambsquarters [3, 12]: 80
- Plant response rating, Lambsquarters [3, 17]: 98
- Plant response rating, Lambsquarters [3, 18]: 98
- Plant response rating, Lambsquarters [3, 19]: 98
- Plant response rating, Lambsquarters [3, 13]: 80
- Plant response rating, Lambsquarters [3, 14]: 90
- Plant response rating, Lambsquarters [3, 15]: 95
- Plant response rating, Lambsquarters [3, 16]: 98
- Plant response rating, Surinam Grass [4, 12]: 40
- Plant response rating, Surinam Grass [4, 17]: 40
- Plant response rating, Surinam Grass [4, 18]: 45
- Plant response rating, Surinam Grass [4, 19]: 50
- Plant response rating, Surinam Grass [4, 13]: 60
- Plant response rating, Surinam Grass [4, 14]: 75
- Plant response rating, Surinam Grass [4, 15]: 98
- Plant response rating, Surinam Grass [4, 16]: 98
- Plant response rating, Oat, Wild (wild oat (Avena fatua); [12]): 35
- Plant response rating, Oat, Wild (wild oat (Avena fatua); [17]): 45
- Plant response rating, Oat, Wild (wild oat (Avena fatua); [18]): 70
- Plant response rating, Oat, Wild (wild oat (Avena fatua); [19]): 70
- Plant response rating, Oat, Wild (wild oat (Avena fatua); [13]): 85
- Plant response rating, Oat, Wild (wild oat (Avena fatua); [14]): 85
- Plant response rating, Oat, Wild (wild oat (Avena fatua); [15]): 85
- Plant response rating, Oat, Wild (wild oat (Avena fatua); [16]): 90
